Test results reported in US20260144769A1, “4-PHENYLBUTYRATE RESTORED GABA UPTAKE AND REDUCED SEIZURES IN SLC6A1 VARIANT-MEDIATED DISORDERS” (Vanderbilt University, priority 2022, published 2026).

Key:
GAT-1 E16X = GAT-1 E16X (Rattus norvegicus, UniProt P23978); assay: 3H GABA uptake, HEK293T, mutant cDNA alone ("homozygous"); assay type: cell-based; design: with only 15 amino acids left in the protein peptide; expressed in transfected cells; host or cells: HEK293T cells; conditions: PBA 2 mM, 24 hrs
Method: (§1) GABA uptake activity was measured by the high-throughput 3H radio-labeling GABA uptake on a liquid scintillator with QuantaSmart. […] HEK293T cells were transfected with the wildtype or the mutant GAT-1^YFP cDNAs alone for 48 hr. […] HEK293T cells were transfected with the wildtype GAT-1^YFP alone or in mixture of the wildtype or the mutant cDNAs for 48 hr. In the mixed condition, the ratio of the wildtype GAT-1 with pcDNA or the mutant cDNAs are 1:1 with the total cDNA amount of 0.5 μg. […] Both wt and the mutant were normalized to its own DMSO treated conditions. 966 stands for the wildtype treated with CI-966 (50 μM) while 711 stands for NNC-711 (35 μM). (N=4-7 different transfections. In FIG. 4A and FIG. 4B, *P<0.05, **P<0.01, ***p<0.001 vs. wt 0. In FIG. C and FIG. 4D, *P<0.05, **P<0.01, ***p<0.001 vs. its own DMSO treated. In FIG. 4C, ns stands for no significance. One-way analysis of variance (ANOVA) and Newman-Keuls test. Values were expressed as mean±S.E.M.
The plasmid cDNA encoding enhanced yellow fluorescent protein (EYFP)-tagged rat GAT-1 has been previously described. […]
Briefly, cells were cultured in […] dishes for 3 days before the GABA uptake experiment in DMEM with 10% fetal bovine serum and 1% penicillin/streptomycin. […] Glacial acetic acid was added, and lysates were then determined on a liquid scintillator with QuantaSmart. […]

wildtype GAT-1 = biological target: T1, wildtype GAT-1 (Rattus norvegicus, UniProt P23978); assay: 3H GABA uptake, HEK293T cells expressing wildtype GAT-1^YFP; assay type: cell-based; conditions: for GABA uptake activity vs. wildtype 0: HEK293T, wildtype GAT-1^YFP, normalized to DMSO treated
T1 construct: The coding region of rGAT-1 was inserted into pEYFP-C1 (Clontech, Palo Alto, CA); expressed in transfected cells; host or cells: HEK293T cells (A1); astrocytes from corrected human iPSCs (A21)
Method: as §1
The plasmid cDNA encoding enhanced yellow fluorescent protein (EYFP)-tagged rat GAT-1 has been previously described. The coding region of rGAT-1 was inserted into pEYFP-C1 (Clontech, Palo Alto, CA). QuikChange Site-directed Mutagenesis kit was utilized to introduce the GAT-1 variants into a wildtype GAT-1 plasmid. The product was then amplified via polymerase chain reaction, transformed using DH5a competent cells, and plated. A clone was chosen and grown overnight. All the GAT-1 variants were confirmed by DNA sequencing. Both the wildtype and the variant cDNAs were prepared with Qiagen Maxiprep kit.
Human embryonic kidney cells were cultured as monolayers in 100 mm^2 dishes. Cells were cultured in Dulbecco's Modified Eagle's Medium supplemented with 10% FBS and 1% penicillin/streptomycin in 37° C. in 5% CO2/95% air. Cells were maintained in culture medium until appropriate confluency for experimentation.
Briefly, cells were cultured in […] dishes for 3 days before the GABA uptake experiment in DMEM with 10% fetal bovine serum and 1% penicillin/streptomycin. The cells were then transfected with equal amounts of the wildtype or the mutant GAT-1 cDNAs (1 μg) for each condition at 24 hrs or 48 hrs after plating. GABA uptake assay was carried out 48 hrs after transfection. The cells were incubated with preincubation solution for 15 min and then incubated with preincubation solution containing 1 μci/mL 3H GABA and 10 μM unlabeled GABA for 30 min at room temperature. After washing, the cells were lysed with 0.25 N NaOH for 1 hr. Glacial acetic acid was added, and lysates were then determined on a liquid scintillator with QuantaSmart. The flux of GABA (pmol/μg/min) was averaged with at least triplets for each condition at each transfection. The average counting was taken as n=1. […]

GABA uptake normalized to its own DMSO treated condition (GAT-1 E16X): 0.813±0.06 | GABA uptake activity vs. wildtype 0 (wildtype GAT-1; PBA 4 mM as printed): 1.24±0.09 | GABA uptake activity vs. wildtype 0 (wildtype GAT-1; PBA for 24 hrs): 1.24±0.05 | cell loss (wildtype GAT-1; cells treated with PBA at 4 mM and/or 48 hrs): occasional cell loss
SMILES: O=C(O)CCCc1ccccc1 [PBA, 4-phenylbutyric acid]
GABA uptake activity, concentration and time dependence (wildtype GAT-1; PBA 0 to 4 mM, 0 to 48 hrs): concentration and time dependently increased
